This experiment addresses T1, Cannabinoid-1 receptor (CB1R) (Rattus norvegicus, UniProt P20272).
T1 construct: The tissue obtained from the brain of SD rats was homogenized; from tissue; host or cells: brain of SD rats (membrane pellet of the homogenate)
In words: Cannabinoid-1 receptor (CB1R) binding affinity assay ([3H]CP-55940, rat CB-1 receptor binding protocol). The note with it: brain tissue of SD rats, [3H]CP-55940, 30° C. 60 min; read-out: IC50. As to the method: The tissue obtained from the brain of SD rats was homogenized with a Dounce homogenate system in TME (50 mM Tris, 3 mM MgCl2 and 1 mM EDTA, pH 7.4) at 4° C., and the homogenate was centrifuged at 48,000 g for 30 min. at 4° C. The pellet was resuspended in 5 ml of TME and the suspension was divided into aliquots and stored at −70° C. until its use in the following assay.
The tissue concentrations were determined by Bradford protein analysis, and 148 μl of brain tissue of the required concentration was added to the plate. The plate was covered and placed in a 30° C. incubator for 60 min, and then transformed on GF/B filtermat pretreated in polyethylenimine (PEI) using a cell harvester. Each filter was washed five times and dried at 60° C. for 1 hr. Then, the degree of radioactivity retained by the filter was measured using Wallac Microbeta™ (PerkinElmer Life Sciences, Inc., Massachusetts, U.S.A.) and the activity of the compound for inhibiting CB1 receptor was determined therefrom.
T1 sequence (P20272 whole entry): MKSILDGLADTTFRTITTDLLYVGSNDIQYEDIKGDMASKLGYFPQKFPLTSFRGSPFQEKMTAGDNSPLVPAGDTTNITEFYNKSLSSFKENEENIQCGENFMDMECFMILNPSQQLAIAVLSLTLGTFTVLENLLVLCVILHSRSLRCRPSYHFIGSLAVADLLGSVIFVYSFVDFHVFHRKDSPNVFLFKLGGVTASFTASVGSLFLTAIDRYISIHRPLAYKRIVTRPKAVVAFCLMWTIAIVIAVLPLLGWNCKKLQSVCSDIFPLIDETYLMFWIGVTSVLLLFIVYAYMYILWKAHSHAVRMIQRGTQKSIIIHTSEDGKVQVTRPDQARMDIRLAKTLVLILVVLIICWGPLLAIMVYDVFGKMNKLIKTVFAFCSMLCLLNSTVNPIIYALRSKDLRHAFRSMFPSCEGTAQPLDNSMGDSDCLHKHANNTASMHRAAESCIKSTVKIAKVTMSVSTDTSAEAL
For the compound “2-(1-benzylcyclopropyl)-5-(5-(4-bromophenyl)-1-(2,4-dichlorophenyl)-4-ethyl-1H-pyrazol-3-yl)-1,3,4-oxadiazole [Example 271]”, the 50% inhibitory concentration (IC50) was 5.88 nM.

Turning to “2-(1-benzylcyclopropyl)-5-(5-(4-chlorophenyl)-1-(2,4-dichlorophenyl)-4-methyl-1H-pyrazol-3-yl)-1,3,4-thiadiazole [Example 467]”, the IC50 was found to be 14.8 nM.

With “2-(5-(4-chlorophenyl)-1-(2,4-dichlorophenyl)-4-methyl-1H-pyrazol-3-yl)-5-cyclohexyl-1,3,4-thiadiazole [Example 347]”, the 50% inhibitory concentration (IC50) came out at 51.3 nM.

Regarding “5-(5-(4-Chlorophenyl)-1-(2,4-dichlorophenyl)-4-methyl-1H-pyrazol-3-yl)-1-cycloheptyl-1H-tetrazole [Example 601]”, the IC50 was determined as 26.7 nM.

For “5-(5-(4-Chlorophenyl)-1-(2,4-dichlorophenyl)-4-methyl-1H-pyrazol-3-yl)-1-octyl-1H-tetrazole [Example 604]”, the half-maximal inhibitory concentration (IC50) amounted to 47.3 nM.

In the case of `Cc1c(-c2nnc(-c3ccncc3)o2)nn(-c2ccc(Cl)cc2Cl)c1-c1ccc(Cl)cc1` [Example 2, 2-(5-(4-chlorophenyl)-1-(2,4-dichlorophenyl)-4-methyl-1H-pyrazol-3-yl)-5-(pyridin-4-yl)-1,3,4-oxadiazole], the half-inhibitory concentration (IC50) was 563 nM.

On to `Cc1c(-c2nnc(-c3ccco3)o2)nn(-c2ccc(Cl)cc2Cl)c1-c1ccc(Cl)cc1` [Example 8, 2-(5-(4-chlorophenyl)-1-(2,4-dichlorophenyl)-4-methyl-1H-pyrazol-3-yl)-5-(furan-2-yl)-1,3,4-oxadiazole], for which the IC50 was found to be 112 nM.

With `Cc1c(-c2nnc(-c3cnccn3)o2)nn(-c2ccc(Cl)cc2Cl)c1-c1ccc(Cl)cc1` [Example 10, 2-(5-(4-chlorophenyl)-1-(2,4-dichlorophenyl)-4-methyl-1H-pyrazol-3-yl)-5-(pyrazin-2-yl)-1,3,4-oxadiazole], the IC50 was 196 nM.

With `Cc1c(-c2nnc(-c3cccs3)o2)nn(-c2ccc(Cl)cc2Cl)c1-c1ccc(Cl)cc1` [Example 11, 2-(5-(4-chlorophenyl)-1-(2,4-dichlorophenyl)-4-methyl-1H-pyrazol-3-yl)-5-(thiophen-2-yl)-1,3,4-oxadiazole], the IC50 came to 96.6 nM.

As to `Cc1c(-c2nnc(-c3cc4ccccc4o3)o2)nn(-c2ccc(Cl)cc2Cl)c1-c1ccc(Cl)cc1` [Example 18, 2-(Benzofuran-2-yl)-5-(5-(4-chlorophenyl)-1-(2,4-dichlorophenyl)-4-methyl-1H-pyrazol-3-yl)-1,3,4-oxadiazole], the IC50 turned out to be 333 nM.

In the case of `Cc1c(-c2nnc(CC3CCCC3)o2)nn(-c2ccc(Cl)cc2Cl)c1-c1ccc(Cl)cc1` [Example 22, 2-(5-(4-Chlorophenyl)-1-(2,4-dichlorophenyl)-4-methyl-1H-pyrazol-3-yl)-5-(cyclopentylmethyl)-1,3,4-oxadiazole], the IC50 came to 35.7 nM.

Turning to `Cc1c(-c2nnc(C3CCOCC3)o2)nn(-c2ccc(Cl)cc2Cl)c1-c1ccc(Cl)cc1` [Example 23, 2-(5-(4-Chlorophenyl)-1-(2,4-dichlorophenyl)-4-methyl-1H-pyrazol-3-yl)-5-(tetrahydro-2H-pyran-4-yl)-1,3,4-oxadiazole], the IC50 was determined as 163 nM.

Turning to `Cc1c(-c2nnc(CC3CCCCC3)o2)nn(-c2ccc(Cl)cc2Cl)c1-c1ccc(Cl)cc1` [Example 24, 2-(5-(4-Chlorophenyl)-1-(2,4-dichlorophenyl)-4-methyl-1H-pyrazol-3-yl)-5-(cyclohexylmethyl)-1,3,4-oxadiazole], the half-inhibitory concentration (IC50) was determined as 22.7 nM.

For `Cc1c(-c2nnc(C3CCCO3)o2)nn(-c2ccc(Cl)cc2Cl)c1-c1ccc(Cl)cc1` (stereo not shown) [Example 25, 2-(5-(4-Chlorophenyl)-1-(2,4-dichlorophenyl)-4-methyl-1H-pyrazol-3-yl)-5-(tetrahydrofuran-2-yl)-1,3,4-oxadiazole], the IC50 was 60 nM.

As to `Cc1c(-c2nnc(C3CC4CCC3C4)o2)nn(-c2ccc(Cl)cc2Cl)c1-c1ccc(Cl)cc1` (stereo not shown) [Example 52, 2-(bicyclo[2.2.1]heptan-2-yl)-5-(5-(4-chlorophenyl)-1-(2,4-dichlorophenyl)-4-methyl-1H-pyrazol-3-yl)-1,3,4-oxadiazole], the IC50 turned out to be 12.7 nM.

For the compound `Cc1c(-c2nnc(C(C)CC3CCC3)o2)nn(-c2ccc(Cl)cc2Cl)c1-c1ccc(Cl)cc1` (stereo not shown) [Example 54, 2-(5-(4-chlorophenyl)-1-(2,4-dichlorophenyl)-4-methyl-1H-pyrazol-3-yl)-5-(1-cyclobutylpropan-2-yl)-1,3,4-oxadiazole], the concentration for half-maximal inhibition (IC50) turned out to be 11.2 nM.

As for `CCc1c(-c2nnc(CC3CCCCC3)o2)nn(-c2ccc(Cl)cc2Cl)c1-c1ccc(Br)cc1` [Example 55, 2-(5-(4-bromophenyl)-1-(2,4-dichlorophenyl)-4-ethyl-1H-pyrazol-3-yl)-5-(cyclohexylmethyl)-1,3,4-oxadiazole], the IC50 was found to be 10.3 nM.

As to `Cc1c(-c2nnc(CC3CCCCC3)o2)nn(-c2ccc(Cl)cc2Cl)c1-c1ccc(Br)cc1` [Example 56, 2-(5-(4-bromophenyl)-1-(2,4-dichlorophenyl)-4-methyl-1H-pyrazol-3-yl)-5-(cyclohexylmethyl)-1,3,4-oxadiazole], the IC50 was 37.6 nM.

With `Cc1c(-c2nnc(C(C)C3CCCC3)o2)nn(-c2ccc(Cl)cc2Cl)c1-c1ccc(Cl)cc1` (stereo not shown) [Example 61, 2-(5-(4-chlorophenyl)-1-(2,4-dichlorophenyl)-4-methyl-1H-pyrazol-3-yl)-5-(1-cyclopentylethyl)-1,3,4-oxadiazole], the 50% inhibitory concentration (IC50) worked out at 22.2 nM.

On to `Cc1c(-c2nnc(C(C)C3CCCCC3)o2)nn(-c2ccc(Cl)cc2Cl)c1-c1ccc(Cl)cc1` (stereo not shown) [Example 62, 2-(5-(4-chlorophenyl)-1-(2,4-dichlorophenyl)-4-methyl-1H-pyrazol-3-yl)-5-(1-cyclohexylethyl)-1,3,4-oxadiazole], for which the 50% inhibitory concentration (IC50) stood at 51.7 nM.

In the case of `Cc1c(-c2nnc(C(C)(C)C3CCCC3)o2)nn(-c2ccc(Cl)cc2Cl)c1-c1ccc(Cl)cc1` [Example 63, 2-(5-(4-chlorophenyl)-1-(2,4-dichlorophenyl)-4-methyl-1H-pyrazol-3-yl)-5-(2-cyclopentylpropan-2-yl)-1,3,4-oxadiazole], the IC50 is 19.1 nM.

In the case of `Cc1c(-c2nnc(C(C)(C)C3CCCCC3)o2)nn(-c2ccc(Cl)cc2Cl)c1-c1ccc(Cl)cc1` [Example 64, 2-(5-(4-chlorophenyl)-1-(2,4-dichlorophenyl)-4-methyl-1H-pyrazol-3-yl)-5-(2-cyclohexylpropan-2-yl)-1,3,4-oxadiazole], the IC50 was found to be 15.2 nM.

Consider `Cc1c(-c2nnc(C3(C)CC3(Cl)Cl)o2)nn(-c2ccc(Cl)cc2Cl)c1-c1ccc(Cl)cc1` (stereo not shown) [Example 65, 2-(5-(4-chlorophenyl)-1-(2,4-dichlorophenyl)-4-methyl-1H-pyrazol-3-yl)-5-(2,2-dichloro-1-methylcyclopropyl)-1,3,4-oxadiazole], for which the half-maximal inhibitory concentration (IC50) is 12.4 nM.

Take `Cc1c(-c2nnc(C3(c4ccc(Cl)cc4)CC3)o2)nn(-c2ccc(Cl)cc2Cl)c1-c1ccc(Cl)cc1` [Example 67, 2-(5-(4-chlorophenyl)-1-(2,4-dichlorophenyl)-4-methyl-1H-pyrazol-3-yl)-5-(1-(4-chlorophenyl)cyclopropyl)-1,3,4-oxadiazole]: the IC50 is 8.61 nM.

As for `Cc1c(-c2nnc(C3(c4ccccc4)CC3)o2)nn(-c2ccc(Cl)cc2Cl)c1-c1ccc(Cl)cc1` [Example 71, 2-(5-(4-chlorophenyl)-1-(2,4-dichlorophenyl)-4-methyl-1H-pyrazol-3-yl)-5-(1-phenylcyclopropyl)-1,3,4-oxadiazole], the IC50 came to 11 nM.

As to `Cc1c(-c2nnc(C(C)(C)Oc3ccccn3)o2)nn(-c2ccc(Cl)cc2Cl)c1-c1ccc(Cl)cc1` [Example 80, 2-(5-(4-chlorophenyl)-1-(2,4-dichlorophenyl)-4-methyl-1H-pyrazol-3-yl)-5-(2-(pyridin-2-yloxy)propan-2-yl)-1,3,4-oxadiazole], the IC50 turned out to be 36.1 nM.

On to `C=CCOCC(C)(C)c1nnc(-c2nn(-c3ccc(Cl)cc3Cl)c(-c3ccc(Cl)cc3)c2C)o1` [Example 97, 2-(1-(allyloxy)-2-methylpropan-2-yl)-5-(5-(4-chlorophenyl)-1-(2,4-dichlorophenyl)-4-methyl-1H-pyrazol-3-yl)-1,3,4-oxadiazole], for which the half-inhibitory concentration (IC50) was 15.7 nM.

On to `COC(C)(C)c1nnc(-c2nn(-c3ccc(Cl)cc3Cl)c(-c3ccc(Cl)cc3)c2C)o1` [Example 98, 2-(5-(4-chlorophenyl)-1-(2,4-dichlorophenyl)-4-methyl-1H-pyrazol-3-yl)-5-(2-methoxypropan-2-yl)-1,3,4-oxadiazole], for which the IC50 amounted to 33.7 nM.

`Cc1c(-c2nnc(C3(c4ccc(Cl)cc4)CCC3)o2)nn(-c2ccc(Cl)cc2Cl)c1-c1ccc(Cl)cc1` [Example 110, 2-(5-(4-chlorophenyl)-1-(2,4-dichlorophenyl)-4-methyl-1H-pyrazol-3-yl)-5-(1-(4-chlorophenyl)cyclobutyl)-1,3,4-oxadiazole]: the IC50 was 13 nM.

Turning to `CCc1c(-c2nnc(C3(c4ccc(Cl)cc4)CC3)o2)nn(-c2ccc(Cl)cc2Cl)c1-c1ccc(Br)cc1` [Example 111, 2-(5-(4-bromophenyl)-1-(2,4-dichlorophenyl)-4-ethyl-1H-pyrazol-3-yl)-5-(1-(4-chlorophenyl)cyclopropyl)-1,3,4-oxadiazole], the IC50 worked out at 3.96 nM.

Turning to `Cc1c(-c2nnc(C3(c4ccc(Cl)cc4)CC3)o2)nn(-c2ccccc2Cl)c1-c1ccc(Cl)cc1` [Example 112, 2-(1-(2-chlorophenyl)-5-(4-chlorophenyl)-4-methyl-1H-pyrazol-3-yl)-5-(1-(4-chlorophenyl)cyclopropyl)-1,3,4-oxadiazole], the IC50 came out at 7.4 nM.

The term IC50 denotes the point on the concentration scale where inhibition reaches its midpoint.

(Values after patent US7875647B2, “Heteroaryl-pyrazole derivatives as cannabinoid CB1 receptor antagonists” (Green Cross Corporation, priority 2006, dated 2011).)
